Assay in all cases: In vitro minimum inhibitory concentration (MIC) test
Common to all, as to assay type: cell-based
Conditions in all cases: RPMI 1640, 35° C., 24-48 h, 485 nm, lowest concentration inhibiting growth more than 80%

For one assay, the system named is Aspergillus flavus. Here is the method: (§1) Example 20: In Vtro Minimum Inhibitory Concentration (MIC) Test Strains used in the experiment are inoculated on Sabouraud glucose agar culture medium and cultured at 35° C. for 5 d; then 1 mL of 0.2% Tween diluted with 0.85% sterile normal saline is added into Sabouraud dextrose agar culture medium, and plate is shaken, before solution collected from plate surface is transferred into sterile tube, and fungus containing supernatant is transferred into sterile tube in full suspension so as to prepare strain diluent with concentration from 0.4*10^6 to 5*10^6 CFU/mL. Strain diluent prepared herein is diluted into RPMI 1640 culture medium in a ratio of 1:100. Such biological suspension is added into hole on the plate which contains drug diluent; all plates are incubated at 35° C. for 24-48 h, and light in wavelength of 485 nm is monitored for each hole to evaluate strain growth. MIC of compound is defined as follows: Compared with negative control free of drug, the lowest drug concentration able to inhibit growth for more than 80% of strains. A indicates MIC value>0.1 μg/mL, B indicates 0.1 μg/mL≥MIC value>0.01 μg/mL, and C indicates MIC value<0.01 μg/mL.

The next assay has as its system Aspergillus fumigatus. The protocol: as §1
A further assay has as its system Aspergillus niger. The protocol: as §1
The next assay concerns Aspergillus terreus. The protocol:
as §1

Values after ≈ are worked out from the molar mass of the structure shown.

A word on the MIC: it is the least concentration at which growth counts as inhibited. A higher MIC goes with a need for much substance.

`Cc1cc(-c2ccccc2)c(C(=O)C(=O)Nc2ccc3c(c2)OC[C@@H]2CN(c4ncc(F)cn4)CCN32)n1C` [Example 1-A]: the MIC with Aspergillus flavus, against Aspergillus fumigatus, in the assay with Aspergillus niger and in the assay with Aspergillus terreus was below 0.01 µg/mL in each case.
As for `Cc1cc(-c2ccccc2)c(C(=O)C(=O)Nc2ccc3c(c2)OC[C@H]2CN(c4ncc(F)cn4)CCN32)n1C` [Example 1-B], the minimal inhibitory concentration (MIC) with Aspergillus flavus, against Aspergillus fumigatus, with Aspergillus niger and in the assay with Aspergillus terreus was below 0.01 µg/mL throughout.
Consider `Cc1cc(-c2ccccc2)c(C(=O)C(=O)Nc2ccc3c(c2)OCC2CN(c4ncc(F)cn4)CCN32)n1C` (stereo not drawn) [Example 1], for which the minimal inhibitory concentration (MIC) in the assay on Aspergillus flavus, in the assay on Aspergillus fumigatus, in the assay with Aspergillus niger and against Aspergillus terreus was below 0.01 µg/mL each time.
As to `Cc1cc(C)nc(N2CCN3c4ccc(NC(=O)C(=O)c5c(-c6ccccc6)cc(C)n5C)cc4OC[C@@H]3C2)c1` [Example 2-A], the minimum inhibitory concentration (MIC) in the assay with Aspergillus flavus, in the assay on Aspergillus fumigatus, in the assay with Aspergillus niger and in the assay on Aspergillus terreus was below 0.01 µg/mL each time.
Turning to `Cc1cc(C)nc(N2CCN3c4ccc(NC(=O)C(=O)c5c(-c6ccccc6)cc(C)n5C)cc4OC[C@H]3C2)c1` [Example 2-B], the MIC with Aspergillus flavus, in the assay on Aspergillus fumigatus, in the assay with Aspergillus niger and in the assay with Aspergillus terreus was below 0.01 µg/mL throughout.
As to `Cc1cc(C)nc(N2CCN3c4ccc(NC(=O)C(=O)c5c(-c6ccccc6)cc(C)n5C)cc4OCC3C2)c1` (stereo not drawn) [Example 2], the minimum inhibitory concentration (MIC) in the assay on Aspergillus flavus, against Aspergillus fumigatus, in the assay with Aspergillus niger and in the assay on Aspergillus terreus was below 0.01 µg/mL throughout.
On to `Cc1cc(-c2ccccc2)c(C(=O)C(=O)Nc2ccc3c(c2)OCC2CN(CC(C)(C)C)CCN32)n1C` (stereo not drawn) [Example 8], for which the MIC against Aspergillus flavus was 0.01 to 0.1 µg/mL (≈ 0.02 to 0.2 µM); in the assay with Aspergillus fumigatus, below 0.01 µg/mL; against Aspergillus niger, 0.01 to 0.1 µg/mL (≈ 0.02 to 0.2 µM); against Aspergillus terreus, below 0.01 µg/mL.
Turning to `Cc1cc(-c2ccccc2)c(C(=O)C(=O)Nc2cc3c(cc2F)N2CCN(c4ncc(F)cn4)CC2CO3)n1C` (stereo not drawn) [Example 9], the MIC in the assay with Aspergillus flavus, in the assay on Aspergillus fumigatus, in the assay with Aspergillus niger and with Aspergillus terreus was below 0.01 µg/mL each time.
Take `Cc1cc2c(cc1NC(=O)C(=O)c1c(-c3ccccc3)cc(C)n1C)OCC1CN(c3ncc(F)cn3)CCN21` (stereo not drawn) [Example 10]: the minimal inhibitory concentration (MIC) in the assay on Aspergillus flavus, in the assay on Aspergillus fumigatus, in the assay with Aspergillus niger and with Aspergillus terreus was 0.01 to 0.1 µg/mL (≈ 0.0185 to 0.185 µM) each time.
For `Cc1cc(-c2ccccc2)c(C(=O)C(=O)Nc2ccc3c(c2)N(C)C[C@@H]2CN(c4ncc(F)cn4)CCN32)n1C` [Example 12-A], the minimum inhibitory concentration (MIC) in the assay with Aspergillus flavus, against Aspergillus fumigatus, in the assay with Aspergillus niger and against Aspergillus terreus was below 0.01 µg/mL in each case.
Consider `Cc1cc(-c2ccccc2)c(C(=O)C(=O)Nc2ccc3c(c2)N(C)C[C@H]2CN(c4ncc(F)cn4)CCN32)n1C` [Example 12-B], for which the minimal inhibitory concentration (MIC) against Aspergillus flavus, with Aspergillus fumigatus, against Aspergillus niger and against Aspergillus terreus was below 0.01 µg/mL throughout.
In the case of `Cc1cc(-c2ccccc2)c(C(=O)C(=O)Nc2ccc3c(c2)N(C)CC2CN(c4ncc(F)cn4)CCN32)n1C` (stereo not drawn) [Example 12], the MIC with Aspergillus flavus was 0.01 to 0.1 µg/mL (≈ 0.0185 to 0.185 µM); against Aspergillus fumigatus, below 0.01 µg/mL; in the assay on Aspergillus niger, 0.01 to 0.1 µg/mL (≈ 0.0185 to 0.185 µM); with Aspergillus terreus it was below 0.01 µg/mL.
In the case of `Cc1cc(C)nc(N2CCN3c4ccc(NC(=O)C(=O)c5c(-c6ccccc6)cc(C)n5C)cc4N(C)C[C@@H]3C2)c1` [Example 13-A], the MIC was 0.01 to 0.1 µg/mL (≈ 0.0182 to 0.182 µM) in the assay on Aspergillus flavus, below 0.01 µg/mL in the assay with Aspergillus fumigatus, 0.01 to 0.1 µg/mL (≈ 0.0182 to 0.182 µM) against Aspergillus niger and below 0.01 µg/mL against Aspergillus terreus.
Turning to `Cc1cc(C)nc(N2CCN3c4ccc(NC(=O)C(=O)c5c(-c6ccccc6)cc(C)n5C)cc4N(C)C[C@H]3C2)c1` [Example 13-B], the MIC is 0.01 to 0.1 µg/mL (≈ 0.0182 to 0.182 µM) in the assay on Aspergillus flavus, below 0.01 µg/mL in the assay with Aspergillus fumigatus, 0.01 to 0.1 µg/mL (≈ 0.0182 to 0.182 µM) against Aspergillus niger and below 0.01 µg/mL against Aspergillus terreus.
For the compound `Cc1cc(C)nc(N2CCN3c4ccc(NC(=O)C(=O)c5c(-c6ccccc6)cc(C)n5C)cc4N(C)CC3C2)c1` (stereo not drawn) [Example 13], the minimal inhibitory concentration (MIC) with Aspergillus flavus was 0.01 to 0.1 µg/mL (≈ 0.0182 to 0.182 µM); in the assay with Aspergillus fumigatus, below 0.01 µg/mL; in the assay on Aspergillus niger it was 0.01 to 0.1 µg/mL (≈ 0.0182 to 0.182 µM); against Aspergillus terreus it was below 0.01 µg/mL.
With `CCn1c(C)cc(-c2ccccc2)c1C(=O)C(=O)Nc1ccc2c(c1)OCC1CN(c3ncc(F)cn3)CCN21` (stereo not drawn) [Example 14], the MIC is below 0.01 µg/mL in the assay with Aspergillus flavus, below 0.01 µg/mL in the assay with Aspergillus fumigatus, 0.01 to 0.1 µg/mL (≈ 0.0185 to 0.185 µM) against Aspergillus niger and below 0.01 µg/mL with Aspergillus terreus.
For the compound `COCCn1c(C)cc(-c2ccccc2)c1C(=O)C(=O)Nc1ccc2c(c1)OCC1CN(c3ncc(F)cn3)CCN21` (stereo not drawn) [Example 16], the minimal inhibitory concentration (MIC) against Aspergillus flavus was below 0.01 µg/mL; with Aspergillus fumigatus it was 0.01 to 0.1 µg/mL (≈ 0.0175 to 0.175 µM); in the assay with Aspergillus niger it was below 0.01 µg/mL; in the assay with Aspergillus terreus, below 0.01 µg/mL.
`CCC(C)n1ncn(-c2ccc(N3CCN(c4ccc(OCC5COC(Cn6cncn6)(c6ccc(Cl)cc6Cl)O5)cc4)CC3)cc2)c1=O` (stereo not drawn) [Itraconazole, reference compound]: the MIC in the assay on Aspergillus flavus, with Aspergillus fumigatus, in the assay with Aspergillus niger and in the assay on Aspergillus terreus was above 0.1 µg/mL each time.

The values above are taken from US12497397B2, “Pyrrole compounds useful as antifungals” (WIGEN BIOMEDICINE TECHNOLOGY (SHANGHAI) CO., LTD., priority 2019, dated 2025).
